According to patent US20250230171A1 (MOMA Therapeutics, Inc., priority 2023, published 2025):
Where two headings read alike, the source gives them in different places.

Key:
DLD1 BRCA2 (−/−) cells = test: 7-day cell viability assay (CellTiter-Glo), DLD1 BRCA2 (−/−); type: cell-based, human; settings: 7-day CellTiter-Glo, n=2, read-out: Viability IC50 (uM) DLD1 BRCA2 null
In short: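 7-day growth assay in DLD1 cells with or without BRCA2; seeding densities chosen to keep log-linear growth. Compound: 10 uM top, 3-fold, 9 points. Endpoint: CTG ATP luminescence at RT.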

DLD1 WT cells = test: 7-day cell viability assay (CellTiter-Glo), DLD1 parental (WT); type: cell-based, human; settings: 7-day CellTiter-Glo, n=2
Method: Cell lines DLD1 WT and DLD1 BRCA2 (−/−) (Horizon Discovery Cat No. HD PAR-008 and HD-105-007) were plated in 384-well culture plates at seeding densities of 100cells/50 ul/well and 200 cells/50 uL/well respectively. The seeding densities are pre-determined from the growth curve kinetics performed to ensure log linear phase of cell growth for these 2 cell lines. These assay plates are then placed in the incubator at 37° C., 5% CO2, relative humidity >90% for a few hours before addition of test compounds. Compounds are dispensed using the Tecan HPD300 or Echo based on the plate map in the appropriate wells of the 384-well plates. The cells are treated with nine-point dose response with 3-fold serial dilutions of test compounds starting at 10 uM top concentration. After addition of the test compounds, the plates are incubated at 37° C., 5% CO2, relative humidity >90% for 7 days. CellTiter-Glo (Promega Cat. No. G7573), ATP detection reagent is prepared according to manufacturer's specifications. Cell assay plates are removed from incubator and bring to room temperature (RT) by letting them sit at bench top for at least 15 min. Using the MultiDrop liquid handler or a multichannel pipette, 35 μL/well of CTG is added and the plates are then placed shakes for 5 seconds, RT.

Molecule | IC50 (DLD1 BRCA2 (−/−) cells; Homo sapiens, DLD-1, 168 h) [µM] | IC50 (DLD1 WT cells; Homo sapiens, DLD-1, 168 h) [µM] | IC50 (DLD1 BRCA2 (−/−) cells) [µM] | IC50 (DLD1 WT cells) [µM]
COc1cnc(Cl)cc1-c1cc(C)ncc1C(=O)Nc1nc2c(s1)CN(C(=O)c1ncc(C)c(C(F)(F)F)c1C)C2 [Example 1011, 2′-chloro-N-(5-(3,5-dimethyl-4-(trifluoromethyl)picolinoyl)-5,6-dihydro-4H-pyrrolo[3,4-d]thiazol-2-yl)-5′-methoxy-6-methyl-[4,4′-bipyridine]-3-carboxamide] | 0.001 to 0.1 | ≥ 10 |  | 
2′-chloro-N-(5-(6-chloro-5-fluoropicolinoyl)-5,6-dihydro-4H-pyrrolo[3,4-d]thiazol-2-yl)-5′-methoxy-6-methyl-[4,4′-bipyridine]-3-carboxamide [Example 388] |  |  | 0.001 to 0.1 | 2 to 5
COc1cnc(Cl)cc1-c1cc(C)ncc1C(=O)Nc1nc2c(s1)CN(C(=O)c1ccc(C(F)F)c(Cl)n1)C2 | 0.001 to 0.1 | ≥ 10 |  | 
Cc1cc(-c2cc(Cl)cnc2OC(F)F)c(C(=O)Nc2nc3c(s2)CN(C(=O)c2ccc(C(F)F)cn2)C3)cn1 [Example 938, 5-chloro-2-(difluoromethoxy)-N-(5-(5-(difluoromethyl)picolinoyl)-5,6-dihydro-4H-pyrrolo[3,4-d]thiazol-2-yl)-6′-methyl-[3,4′-bipyridine]-3′-carboxamide] | 0.001 to 0.1 | ≥ 10 |  | 
COc1cnc(Cl)cc1-c1cc(C)ncc1C(=O)Nc1nc2c(s1)CN(C(=O)c1cnc(C(F)(F)F)c(OC)n1)C2 [Example 986, 2′-chloro-5′-methoxy-N-(5-(6-methoxy-5-(trifluoromethyl)pyrazine-2-carbonyl)-5,6-dihydro-4H-pyrrolo[3,4-d]thiazol-2-yl)-6-methyl-[4,4′-bipyridine]-3-carboxamide] | 0.001 to 0.1 | ≥ 10 |  | 
COc1cnc(Cl)cc1-c1cc(C)ncc1C(=O)Nc1nc2c(s1)CN(C(=O)c1ncc(C(F)F)cc1F)C2 | 0.001 to 0.1 | ≥ 10 |  | 
COc1ncc(Cl)cc1-c1cc(C)ncc1C(=O)Nc1nc2c(s1)CN(C(=O)c1nc(OC)c(C(F)(F)F)cc1C)C2 [Example 1044, 5-chloro-2-methoxy-N-(5-(6-methoxy-3-methyl-5-(trifluoromethyl)picolinoyl)-5,6-dihydro-4H-pyrrolo[3,4-d]thiazol-2-yl)-6′-methyl-[3,4′-bipyridine]-3′-carboxamide] | 0.001 to 0.1 | ≥ 10 |  | 
N-(5-(2-Methoxy-6-(trifluoromethyl)nicotinoyl)-5,6-dihydro-4H-pyrrolo[3,4-d]thiazol-2-yl)-4-(6-methoxyimidazo[1,5-a]pyridin-7-yl)-6-methylnicotinamide [Example 568] |  |  | 0.001 to 0.1 | ≥ 10
COc1nc(C(F)(F)F)ccc1C(=O)N1Cc2nc(NC(=O)c3cnc(C)cc3-c3cc(C#N)cnc3OC)sc2C1 [Example 1048, 5-cyano-2-methoxy-N-(5-(2-methoxy-6-(trifluoromethyl)nicotinoyl)-5,6-dihydro-4H-pyrrolo[3,4-d]thiazol-2-yl)-6′-methyl-[3,4′-bipyridine]-3′-carboxamide] | 0.001 to 0.1 | ≥ 10 |  | 

Further lines, with some results ahead:

IC50 (DLD1 BRCA2 (−/−) cells; Homo sapiens, DLD-1, 168 h) [µM] | Molecule | IC50 (DLD1 WT cells; Homo sapiens, DLD-1, 168 h) [µM] | IC50 (DLD1 BRCA2 (−/−) cells) [µM] | IC50 (DLD1 WT cells) [µM]
0.001 to 0.1 | COc1nc(C(F)(F)F)ccc1C(=O)N1Cc2nc(NC(=O)c3cnc(C)cc3-c3cc(C(F)F)cnc3OC)sc2C1 [Example 1032, 5-(difluoromethyl)-2-methoxy-N-(5-(2-methoxy-6-(trifluoromethyl)nicotinoyl)-5,6-dihydro-4H-pyrrolo[3,4-d]thiazol-2-yl)-6′-methyl-[3,4′-bipyridine]-3′-carboxamide] | ≥ 10 |  | 
0.001 to 0.1 | COc1cnc(Cl)cc1-c1cc(C)ncc1C(=O)Nc1nc2c(s1)CN(C(=O)c1nc(C(F)(F)F)c(C)cc1C)C2 [Example 1012, 2′-chloro-N-(5-(3,5-dimethyl-6-(trifluoromethyl)picolinoyl)-5,6-dihydro-4H-pyrrolo[3,4-d]thiazol-2-yl)-5′-methoxy-6-methyl-[4,4′-bipyridine]-3-carboxamide] | ≥ 10 |  | 
0.001 to 0.1 | COc1cnc(Cl)cc1-c1cc(C)ncc1C(=O)Nc1nc2c(s1)CN(C(=O)c1ccc(C(F)(F)F)c(C)n1)C2 | ≥ 10 |  | 
